# Patent US20140271727A1, “METHOD OF USING AN ANTIDEPRESSANT FOR INCREASING IMMUNITY OF A SUBJECT AND TREATING CANCER” (NATIONAL YANG-MING UNIVERSITY, priority 2013, published 2014)
# Assays:
# Type in all cases: in vivo, mouse
# [1] = test system: CD4+ and CD8+ T cells; test: Immunohistostaining of infiltrating CD4+ and CD8+ T cells in tumor tissues; conditions: concurrent and always vs never; day 42 post tumor inoculation; p<0.01 and p<0.001
# Method: Immunohistochemistry (IHC) of CD4 and CD8 was also performed on day 42 post the tumor inoculation. Tumors were then removed, paraffin embedded, and 5-mm sectioning was performed. The sections were immunohistostained with antibodies against CD4 (BioLegend, USA) and CD8 (BioLegend, USA), respectively. The procedures of immunohistostaining were followed the protocols provided with the IHC kit (Millipore, USA). All images were digitally captured on a Scanscope CS system (Aperio, USA).
# [2] = test system: TNF-α; test: Serum TNF-α ELISA; conditions: tumor-bearing mice with vs without mirtazapine; weekly up to 6 weeks post tumor inoculation
# Method: As to the quantification of TNF-α, the whole blood withdrawn from the pouch of each mouse once a week for up to 6 weeks was centrifuged at 600×g for 20 min, and serum was collected. The serum TNF-α level was evaluated with an ELISA kit (eBioscience, USA).
# [3] = test system: CT26/luc tumor; test: CT26/luc tumor growth in BALB/c mice (caliper tumor volume, BLI); parameters: mean tumor growth time / mean tumor growth delay time: unit not given here; conditions: for mean tumor growth delay time: growth time of treated group minus that of never; for mean tumor growth time: time at which tumor volume reaches 400 mm; for mean tumor growth inhibition rate: growth rate of treated group/growth rate of never
# Method: The details in preparing the materials and processing relative analyses will be illustrated as follows. First, CT-26 murine colon carcinoma cells (obtained from Taiwan Liposome Company, Taipei, Taiwan) were transfected with the luciferase gene (hereafter called “CT26/luc”). The CT26/luc tumor cells were cultured in RPMI 1640 medium (Invitrogen) supplemented with 10% fetal bovine serum (Hyclone), 100 units/ml of penicillin, and […] streptomycin (Gibco-BRL) at 37° C. in a 5% CO2 atmosphere.
# (§1) Second, all animal study protocols were approved by the Institutional Animal Care and Use Committee (IACAU) of National Yang Ming University. Mirtazapine (0.25 mg) was dissolved in 0.05 ml of 0.9% NaCl plus 0.5% absolute ethanol for each mouse (i.e. 10 mg/kg.) Male BALB/c mice (initial weights 25±2 g, and purchased from the National Laboratory Animal Center, Taipei, Taiwan) were housed in the cages, five mice per cage, under a 12:12 h reverse light/dark cycle with lights off at 6 pm Animals were handled and weighed daily for a week to reduce any non-specific stress responses. And then, please refer to FIG. 1A and FIG. 1B, FIG. 1A and FIG. 1B are diagrams showing the experimental designs according to an embodiment of the present invention. […] “Wild-type” means the mice are monitored without tumor inoculation and mirtazapine treatment, drug means the mice are monitored with continuous mirtazapine treatment but without tumor inoculation, never means the mice are monitored with tumor inoculation and daily 0.05 ml of 0.9% NaCl plus 0.5% absolute ethanol treatment but without mirtazapine treatment, always means the mice are monitored with mirtazapine treatment initiated 2 weeks before the tumor inoculation, and concurrent means the mice are monitored with tumor inoculation and mirtazapine treatment on the same day, and after means the mice are monitored with mirtazapine treatment initiated 2 weeks post the tumor inoculation. That is, the mice were assayed on day 22 for behaviors, and then sacrificed for the measurement of lymphocyte subsets and performed with ex vivo autoradiography.
# (§2) Accordingly, the CT26/luc cells (2×10^6 cells/200 μL) suspended in the serum-free RPMI medium were transplanted subcutaneously into the dorsal region of the right thighs of the BALB/c mice. 10 mg/kg/d mirtazapine dissolved in 0.9% sodium chloride and 0.5% ethanol was administered to mice by gavage daily till mice expired or terminated on day 67 post tumor inoculation. Survival rate and interval were assayed for never, always, concurrent, and after (n=10 per group).
# As to the tumor growth, it was monitored using a digital caliper twice a week. The tumor volume was calculated according the following formula: […]
# 0.5236×length×width×thickness
# Bioluminescence imaging (hereafter called “BLI”) used for tumor size tracking was performed with an IVIS50 animal imaging system (Xenogen Corp., USA).
# [4] = test system: CT26/luc tumor; test: Survival of CT26/luc tumor-bearing BALB/c mice; conditions: 10 mg/kg/d by gavage, never 43.1±2.6 days
# Method: as §1
# as §2, with “group). […]” for “group).”
# [5] = test system: CT26/luc tumor; test: CT26/luc tumor growth in SCID mice; conditions: always-SCID vs never-SCID
# From the text: Also, Applicant divides other six-weeks-old immunodeficient male SCID mice (purchased from the National Laboratory Animal Center, Taiwan) into two groups, such as the group named “never-SCID” (hereafter called “never-SCID”) and the group named “always-SCID” (hereafter called “always-SCID”), as control groups for verifying the involvement of the immune system in the inhibition of the tumor growth by mirtazapine. Never-SCID means that the mice are monitored with tumor inoculation but without mirtazapine treatment, and always-SCID means the mice are monitored with mirtazapine treatment initiated 2 weeks before tumor inoculation. As to the tumor growth, it was monitored using a digital caliper twice a week. The tumor volume was calculated according the following formula: 0.5236×length×width×thickness Bioluminescence imaging (hereafter called “BLI”) used for tumor size tracking was performed with an IVIS50 animal imaging system (Xenogen Corp., USA).
# [6] = test system: IL-12p70; test: Serum sIL-12 in SCID mice; conditions: SCID mice after mirtazapine treatment
# From the text: Also, Applicant divides other six-weeks-old immunodeficient male SCID mice (purchased from the National Laboratory Animal Center, Taiwan) into two groups, such as the group named “never-SCID” (hereafter called “never-SCID”) and the group named “always-SCID” (hereafter called “always-SCID”), as control groups for verifying the involvement of the immune system in the inhibition of the tumor growth by mirtazapine. Never-SCID means that the mice are monitored with tumor inoculation but without mirtazapine treatment, and always-SCID means the mice are monitored with mirtazapine treatment initiated 2 weeks before tumor inoculation. As to the quantification of interleukin-12 (hereafter called “IL-12”), the whole blood withdrawn from the pouch of each mouse was centrifuged at 600×g for 20 min, and serum was collected. The serum IL-12p70 (sIL-12) level was determined using an ELISA kit (R&D Systems, Taiwan). Identification for the lymph node cluster of differentiated CD4+ T helper and CD8+T-cytotoxic lymphocyte subsets was assayed. Briefly, the lymphocytes isolated from the lymph nodes of groins of mice were stained with phycoerythrin-conjugated antimouse CD4 (CD4-PE) monoclonal antibody and peridininchlorophyll-protein-complex-conjugated anti-mouse CD8 (CD8-PerCP) monoclonal antibody (BioLegend, USA). Lymphocyte subsets were identified by FACS analysis using a FACS Calibur flow cytometer. […]
structure (smiles),measurement,setting,value
CN1CCN2c3ncccc3Cc3ccccc3C2C1 (centres unmarked) [mirtazapine],infiltrating CD4+ and CD8+ cells/0.1 mm^2 tumor tissues,[1],significantly increased numbers
same,serum TNF-α level,[2],no significant difference
same,tumor growth inhibition,"[3]; always, concurrent and after vs never, day 22-47 after tumor inoculation, p<0.01",significant tumor growth inhibition
same,mean tumor growth delay time,[3]; group Always (2 weeks before inoculation),18.8
same,mean tumor growth time,[3]; group Always: mirtazapine 10 mg/kg/d by gavage initiated 2 weeks before tumor inoculation,41.3
same,mean tumor growth inhibition rate,[3]; group Always,1.8
same,mean tumor growth delay time,[3]; group Concurrent (same day as inoculation),8.2
same,mean tumor growth time,[3]; group Concurrent: mirtazapine 10 mg/kg/d from the day of tumor inoculation,30.9
same,mean tumor growth inhibition rate,[3]; group Concurrent,1.4
same,mean tumor growth delay time,[3]; group after (2 weeks post inoculation),2.8
same,mean tumor growth time,[3]; group after: mirtazapine 10 mg/kg/d initiated 2 weeks post tumor inoculation,25.4
same,mean tumor growth inhibition rate,[3]; group after,1.1
same,survival time,[4]; group after,57.01 ± 3.2 days
same,survival time,"[4]; group always, terminated on day 67",66.91 ± 0.1 days
same,survival time,[4]; group concurrent,63.61 ± 1.5 days
same,tumor inhibition effect in SCID mice,[5],not found
same,increase of sIL-12 level in SCID mice,[6],not found
